Test results as given in patent US5602140A, “Purine derivatives and suppressants for inflammatory diseases” (Japan Energy Corporation, priority 1994, dated 1997).
Where a name gives a salt, the structure may show the parent alone.

How the values were obtained:
[1] = Scavenging of active oxygen / inhibitory effect against lipid peroxidation (oxidation of linolenic acid to conjugated diene by hydroxy radical, Fenton reaction); type: biochemical; conditions: linolenic acid 1.0 mM, absorbance at 234 nm
Protocol: The inhibitory effect against oxidation of linolenic acid to conjugated diene due to hydroxy radical (. OH) formed by Fenton reaction was determined according to the method of Kharasch et al. (see J. Biol. Chem., 2.60, 10,645 (1985)). A predetermined concentration of FeCl2 solution was added to a mixture of water and DMSO containing predetermined amount of linolenic acid, NaCl, H2 O2, Lubrol and the rest compound to start the reaction. […] Then, the changes of absorbance at 234 nm due to the formation of conjugated diene in the reaction solutions were determined periodically. The inhibitory rate (%) was estimated from the differences between the test solutions and corresponding solutions without the test compound. When the difference of said reaction rate was 0 (zero), then the inhibitory rate was made 0%, and when the reaction rate was 0 (zero), then the inhibitory rate was made 100%.
The inhibitory rate was estimated for various concentrations of said test compounds and the 50%-inhibitory concentration (IC50) was regressively calculated. The preventive effect against lipid peroxidation was evaluated using IC50.

[2] = tested on: platelet aggregation induced by PAF; assay: Anti-PAF activity: inhibition of platelet aggregation induced by PAF in platelet rich plasma; type: cell-based, rabbit; conditions: Oryctolagus cuniculus, PAF 10 nM, test compound concentration 30 μM, read-out: Inhibitory rate
Protocol: Anti-PAF activity of purine derivatives of the present invention was evaluated in the inhibition of platelet aggregation induced by PAF (platelet activation factor).
In the present evaluation, blood was drawn from rabbit and 9 volumes of the blood was added with 1 volume of 3.8% sodium citrate solution, centrifuged at 2,000 rpm for 3 min. to give platelet rich plasma (PRP). In a platelet aggregation determination apparatus, 200 μl of the PRP solution and 25 μl of a solution prepared from a predetermined amount of the test compound were mixed and incubated for 2 min. The incubated mixture was added with 25 μl of a solution containing a predetermined amount of PAF to cause platelet aggregation induced by PAF in the test solution. A concentration of PAF was 10 nM in the test solution. The inhibitory rate against platelet aggregation induced by PAF was calculated from the changes of transmission accompanied by the platelet aggregation.
Various concentrations of the test compounds in the test solution were selected to investigate the relationship between the concentration and the inhibitory rate for the evaluation of inhibitory rate of platelet aggregation induced by PAF. […] The inhibitory rate for the positive control compound, CV-3988 (rac-3-(N-n-octadecylcarbamoyl)-2-methoxypropyl-2-thiazolium ethyl phosphate) is also shown in Table 4.

[3] = target: TXA2 synthesis (crude TXA2 synthetase); assay: Inhibition of TXA2 synthesis (crude TXA2 synthetase, labeled arachidonic acid, RIA); type: biochemical, human; conditions: for IC50: TXA2 formation, 37° C., 10 min
Protocol: Inhibitory effect against TXA2 synthesis was evaluated by the method shown below determining the formation of TXA2 as an arachidonic acid metabolite in the presence of purine derivatives of the present invention.
TXA2 (thromboxane A2) is reported to be synthesized by TXA2 synthetase in arachidonic acid cascade via a cyclic peroxide (PGH2) formed by cyclooxygenase system. Crude TXA2 synthetase was prepared by the following method in the present invention. Blood drawn from healthy volunteer was centrifuged at 200 G for 15 min. and the resulting supernatant was further centrifuged at 2,000 G for 10 min. to give precipitates. The precipitates were homogenized in 0.01M phosphate buffer and centrifuged at 1,000 G for 10 min. to give a supernatant. The resultant supernatant was used as a crude TXA2 synthetase in the following processes. […] The reaction solution was incubated at 37° C. for 10 min. and TXA2 formed in the reaction mixture was determined by RIA method using a commercially available kit (Amersham Co., Ltd., RIA kit). The inhibitory rate was calculated from the difference between the determined amount of formed TXA2 and that carried out in the absence of the test compound. When the difference of formed amount of TXA2 was 0 (zero), then the inhibitory rate was made 0% and when the formation of TXA2 was equal to that of solvent control without TXA2 synthetase, then the inhibitory rate was made 100%.
The inhibitory rate was estimated for various concentrations of said test compounds and the concentration of 50%-inhibition (IC50) was regressively calculated. The inhibitory effect against TXA2 formation was evaluated using IC50.

[4] = tested on: TXA2 synthesis (crude TXA2 synthetase); conditions: J. Med. Chem., 24, 1139-1149 (1981); cited from earlier work
[5] = tested on: platelet aggregation induced by PAF; conditions: Life Science, 32, 1975-1982 (1983); cited from earlier work
[6] = tested on: nephrotoxin-induced nephritis; assay: Effect on nephrotoxin-induced nephritis (anti-GBM serum) in rats; type: in vivo, male SD rats; conditions: for Serum parameter BUN / Serum parameter Total cholesterol / Serum parameter triglyceride / Urinary protein One day before induction / Urinary protein Day 5 after induction / Urinary protein Day 3 after induction: oral once daily, means ± S.E.; for Serum parameter BUN: control 27.6 ± 0.9; for Serum parameter Total cholesterol: control 75 ± 3; for Serum parameter triglyceride: control 161 ± 25; for Urinary protein One day before induction: control 12.2 ± 1.1; for Urinary protein Day 5 after induction: control 72.1 ± 25.7; for Urinary protein Day 3 after induction: control 74.1 ± 25.6
Protocol: Inhibitory effect of purine derivatives of the present invention against nephrotoxin-induced nephritis was evaluated by the following method.
In the present method of evaluation, nephrotoxin-induced nephritis was induced by administration of anti-GBM (glomerular basement membrane) serum to 9-week old male SD rats. The anti-GBM serum was prepared according to a known method (see Kidney and Dialysis (Jin to Toseki) 31, Special Issue, p. 202-206 (1991), Pub. by Tokyo Igakusha Ltd., Tokyo, Japan). Anti-GBM serum was intravenously administered at an induction dose of 0.15 ml/300 g (body weight). The predetermined dose per body weight of the test compound was suspended in 0.5% CMC--Na aqueous solution and orally administered once daily for consecutive 7 days starting from one day before induction (administration of anti-GBM serum). While, control group was given the same dose of 0.5% CMC--Na aqueous solution only. During the administration period of the test compound, urinary protein was measured every 24 hrs. Seven days after the induction, blood was drawn to prepare serum sample by a conventional method, and BUN, total cholesterol and triglyceride were measured.
Various doses of the test compounds per body weight were selected to investigate the relationship between the dose and urinary protein for the evaluation of inhibitory effect against nephrotoxin-induced nephritis.

endotoxin induced death = assay: Activity for the endotoxin (LPS) induced death in mice; type: in vivo, male ICR mice; conditions: for Survival rate: oral twice (30 min before and 8 hrs after LPS 15 mg/kg i.p.), within 4 days, control 50%
Protocol: (Activity for the endotoxin induced death) Activity of purine derivatives of the present invention for endothelial cell damage by endotoxin was evaluated by the following method.
In the present method of evaluation, endotoxin caused endothelial cell damage was induced by intraperitoneal administration of LPS (E. coli 055:B5) to male ICR mice. The body weight of test mice was determined beforehand and a dose of 15 mg/kg (body weight) of LPS was predetermined. After administration of LPS, the difference between the number of dead mice induced by endotoxin within 4 days and the total number of mice was divided by the total number of mice to give the survival rate. The dose per body weight of test compound was predetermined and orally administered at 30 min. before induction (LPS administration) and at 8 hrs. after the induction, twice in total. The test compounds were suspended in 0.5% CMC--Na aqueous solution.
Various doses of the test compounds per body weight were selected to investigate the relationship between the dose and survival rate for the evaluation of inhibitory effect against endotoxin induced death. […] While, control group was given the same dose of 0.5% CMC--Na aqueous solution only. […] That is, the inhibitory effect of the compound of the present invention against endotoxin induced death was clearly observed.

[7] = dose 30 mg/kg, day 7 after induction
[8] = dose 100 mg/kg, day 7 after induction, *p < 0.05

SMILES: CC(C)(C)c1cc(-c2nc(OCCCC(=O)O)c3[nH]cnc3n2)cc(C(C)(C)C)c1O [Example 8, 6-(3-carboxy-n-propoxy)-2-(3,5-di-tert-butyl-4-hydroxyphenyl)purine]
- IC50 [1]: 4 µM
- inhibition at 30 µM [2]: 5%

SMILES: CC(C)(C)c1cc(-c2nc(O)c3[nH]cnc3n2)cc(C(C)(C)C)c1O [Example 7, 2-(3,5-di-tert-butyl-4-hydroxyphenyl)-6-hydroxypurine]
- IC50 [1]: 3.4 µM
- inhibition at 30 µM [2]: 5%

SMILES: COc1nc(-c2cc(C(C)(C)C)c(O)c(C(C)(C)C)c2)nc2nc[nH]c12 [Example 1, 2-(3,5-di-tert-butyl-4-hydroxyphenyl)-6-methoxypurine]
- IC50 [1]: 3.5 µM
- inhibition at 30 µM [2]: 46%
- IC50 [3]: 963 nM

SMILES: CCCCOc1nc(-c2cc(C(C)(C)C)c(O)c(C(C)(C)C)c2)nc2nc[nH]c12 [Example 3, 6-n-butoxy-2-(3,5-di-tert-butyl-4-hydroxyphenyl)purine]
- IC50 [1]: 3.5 µM
- inhibition at 30 µM [2]: 78%
- inhibitory effect against formation of TXA2 (in words) [3]: remarkable inhibitory effect against formation of TXA2
- IC50 [3]: 174 nM

SMILES: CC(C)(C)c1cc(-c2nc(OCc3ccc(C(=O)O)cc3)c3[nH]cnc3n2)cc(C(C)(C)C)c1O [Example 11, 6-(4-carboxybenzyloxy)-2-(3,5-di-tert-butyl-4-hydroxyphenyl)purine]
- IC50 [1]: 3.9 µM
- inhibition at 30 µM [2]: 53%

SMILES: CC(C)(C)c1cc(-c2nc(OCCc3ccccc3)c3[nH]cnc3n2)cc(C(C)(C)C)c1O [Example 6, 2-(3,5-di-tert-butyl-4-hydroxyphenyl)-6-phenethyloxypurine]
- IC50 [1]: 3.5 µM
- inhibition at 30 µM [2]: 35%
- IC50 [3]: 681 nM

SMILES: O=C(O)/C=C/c1ccc(Cn2ccnc2)cc1 [Ozagrel HCl, reference compound]
- inhibitory effect against TXA2 synthesis (literature, in words) [4]: very high inhibitory effect against TXA2 synthesis
- IC50 [3]: 17 nM

SMILES: CC(C)(C)c1cc(-c2nc(OCCCCCCCC(=O)O)c3[nH]cnc3n2)cc(C(C)(C)C)c1O [Example 10, 6-(7-carboxy-n-heptyloxy)-2-(3,5-di-tert-butyl-4-hydroxyphenyl)purine]
- IC50 [1]: 3.7 µM
- inhibition at 30 µM [2]: 4%

SMILES: CCCCCCCCCCCCCCCCCCNC(=O)OCC(COP(=O)([O-])OCC[n+]1ccsc1)OC (racemic) [CV-3988, rac-3-(N-n-octadecylcarbamoyl)-2-methoxypropyl-2-thiazolium ethyl phosphate, reference compound]
- inhibition at 30 µM [2]: 78%
- anti-PAF activity (literature, in words) [5]: high anti-PAF activity

SMILES: CC(C)(C)c1cc(-c2nc(OCCCCCC(=O)O)c3[nH]cnc3n2)cc(C(C)(C)C)c1O [Example 9, 6-(5-carboxy-n-pentyloxy)-2-(3,5-di-tert-butyl-4-hydroxyphenyl)purine]
- IC50 [1]: 3.6 µM
- inhibition at 30 µM [2]: 2%

SMILES: CCCCCCCCOc1nc(-c2cc(C(C)(C)C)c(O)c(C(C)(C)C)c2)nc2nc[nH]c12 [Example 5, 2-(3,5-di-tert-butyl-4-hydroxyphenyl)-6-n-octyloxypurine]
- IC50 [1]: 5.4 µM
- inhibition at 30 µM [2]: 15%

SMILES: CCCOc1nc(-c2cc(C(C)(C)C)c(O)c(C(C)(C)C)c2)nc2nc[nH]c12 [Example 2, 2-(3,5-di-tert-butyl-4-hydroxyphenyl)-6-n-propoxypurine]
- IC50 [1]: 3.4 µM
- Serum parameter BUN [6, 7]: 26.9 ± 0.8 mg/dL
- Serum parameter Total cholesterol [6, 7]: 72 ± 6 mg/dL
- Serum parameter triglyceride [6, 7]: 125 ± 20 mg/dL
- Urinary protein One day before induction ([6]; dose 30 mg/kg): 10.5 ± 0.8 mg/day
- Urinary protein Day 5 after induction ([6]; dose 30 mg/kg): 52.8 ± 16.7 mg/day
- Urinary protein Day 3 after induction ([6]; dose 30 mg/kg): 49.0 ± 16.7 mg/day
- Serum parameter triglyceride ([6]; dose 100 mg/kg, day 7 after induction, **p < 0.01): 60 ± 4 mg/dL
- Serum parameter BUN [6, 8]: 23.6 ± 1.6 mg/dL
- Serum parameter Total cholesterol [6, 8]: 66 ± 2 mg/dL
- Urinary protein Day 5 after induction ([6]; dose 100 mg/kg, *p < 0.05): 14.3 ± 1.0 mg/day
- Urinary protein Day 3 after induction ([6]; dose 100 mg/kg, *p < 0.05): 14.5 ± 1.7 mg/day
- Urinary protein One day before induction ([6]; dose 100 mg/kg): 12.2 ± 2.5 mg/day
- inhibitory effect against increase of urinary protein (in words) ([6]; oral, 30 and 100 mg/kg): dose dependent inhibitory effect against increase of urinary protein
- concentrations of serum BUN, total cholesterol and triglyceride (in words) ([6]; oral, 30 and 100 mg/kg, day 7 after induction): dose dependent decrease
- Survival rate (endotoxin induced death; dose 100 mg/kg): 68%
- Survival rate (endotoxin induced death; dose 300 mg/kg): 75%
- effect on survival / endotoxin induced death (in words) (endotoxin induced death; oral, 100 and 300 mg/kg): increase in survival rate with the increase of dose was clearly observed
- inhibition at 30 µM [2]: 57%
- inhibitory effect against formation of TXA2 (in words) [3]: remarkable inhibitory effect against formation of TXA2
- IC50 [3]: 157 nM

SMILES: CCCCCCOc1nc(-c2cc(C(C)(C)C)c(O)c(C(C)(C)C)c2)nc2nc[nH]c12 [Example 4, 2-(3,5-di-tert-butyl-4-hydroxyphenyl)-6-n-hexyloxypurine]
- IC50 [1]: 3.7 µM
- inhibition at 30 µM [2]: 61%
- IC50 [3]: 942 nM
